Results: patent US9850283B2, “Macrocyclic inhibitors of the PD-1/PD-L1 and CD80(B7-1)/PD-L1 protein/protein interactions” (BRISTOL-MYERS SQUIBB COMPANY, priority 2013, dated 2017)
Read-outs that look alike come from different tables or passages of the source. Starred links: 1 amine or outer side, 2 acyl side, 3 side chain; linkers in the order of their positions; H or OH if unused. Positions of bridges follow the written chain, without caps; N, C: chain ends. Non-standard residues stand in square brackets, D forms with d. Residues, ends and D or L forms follow the SMILES beside them. ξ: configuration not given here. X6 = O=C([C@H](Cc1c(-c2ccc(F)cc2)[nH]c2ccccc12)N[*:1])[*:2]; Phe(3,4-(OMe)2) = COc1ccc(C[C@H](N)C(=O)O)cc1OC; Bta = N[C@@H](Cc1csc2ccccc12)C(=O)O; Hyp = O=C(O)[C@@H]1C[C@@H](O)CN1; NMeF = CN[C@@H](Cc1ccccc1)C(=O)O; NMeNle = CCCC[C@H](NC)C(=O)O; ξR = N=C(N)NCCCC(N)C(=O)O; NMeA = CN[C@@H](C)C(=O)O; Dap = NC[C@H](N)C(=O)O; Sar = CNCC(=O)O

What was measured:
Human PD-L1/PD-1 = biological target: T1, Human PD-L1/PD-1 (Homo sapiens, UniProt Q9NZQ7); experiment: HTRF PD-1-Ig/PD-L1-His binding assay (human PD-L1)
T1 construct: made in house; host or cells: HEK293T
How it was run: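 Soluble Fc-fused PD-1 and His-tagged PD-L1 (truncated before the transmembrane region) were combined in dPBS with 0.1% (w/v) BSA and 0.05% (v/v) Tween-20. Binding was read by HTRF using europium cryptate anti-Ig antibody (1 nM final) and APC anti-His antibody (20 nM final).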

[1] = biological target: T2, LK35.2-hPD-L1 cells / PE-labeled PD-1-Ig (Homo sapiens, UniProt Q9NZQ7); experiment: LK35.2-hPD-L1 cell binding high-content screening assay; format: cell-based
T2 construct: expressed in transfected cells; host or cells: LK35.2 mouse B cell line
How it was run: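 Fluorescent PD-1-Ig binding to PD-L1-expressing LK35.2 cells, imaged after washing. Conditions: 1 nM PE-PD-1-Ig, 37 °C, 1 h, RPMI with 10% fetal calf serum.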

[2] = cluster symbol, read-out: HTRF IC50 cluster
[3] = cluster symbol, cell line of CBA not given (LK35.2-hPD-L1 or 293T-hPD-L1), read-out: CBA IC50 cluster

T2 sequence (Q9NZQ7 19-290): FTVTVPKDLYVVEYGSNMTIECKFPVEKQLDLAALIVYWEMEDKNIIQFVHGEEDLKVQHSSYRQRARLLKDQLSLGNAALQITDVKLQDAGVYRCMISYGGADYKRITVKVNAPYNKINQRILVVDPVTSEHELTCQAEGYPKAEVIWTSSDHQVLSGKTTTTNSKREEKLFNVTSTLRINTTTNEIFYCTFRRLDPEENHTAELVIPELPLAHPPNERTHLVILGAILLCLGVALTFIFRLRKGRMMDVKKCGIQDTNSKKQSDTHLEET
T1 sequence (Q9NZQ7 with tags, fused parts or gaps): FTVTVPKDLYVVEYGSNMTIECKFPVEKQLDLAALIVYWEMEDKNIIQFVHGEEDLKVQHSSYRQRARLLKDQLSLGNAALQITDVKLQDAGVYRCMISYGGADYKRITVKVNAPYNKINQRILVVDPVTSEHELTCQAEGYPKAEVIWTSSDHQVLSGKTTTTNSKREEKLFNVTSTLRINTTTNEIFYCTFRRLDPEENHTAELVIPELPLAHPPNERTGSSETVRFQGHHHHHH

Row | Compound | IC50 (Human PD-L1/PD-1; value given instead of cluster, read-out: HTRF IC50 value) [nM] | IC50 ([1]; cell binding assay, cell line not given, value given instead of cluster, read-out: CBA IC50 value) [nM] | IC50 (Human PD-L1/PD-1; [2]) [nM] | IC50 [1, 3] [nM] | IC50 ([1]; cell binding assay, cell line not given, cluster symbol, read-out: CBA IC50 cluster) [nM]
1 | CCCC[C@H]1C(=O)N(C)[C@@H](CCCC)C(=O)N[C@@H](CCCNC(=N)N)C(=O)N[C@H](C(=O)NCC(N)=O)CSCC(=O)N[C@@H](Cc2ccccc2)C(=O)N(C)[C@@H](C)C(=O)N[C@@H](CC(N)=O)C(=O)N2CCC[C@H]2C(=O)N[C@@H](Cc2c[nH]cn2)C(=O)N[C@@H](CC(C)C)C(=O)N(C)CC(=O)N[C@@H](Cc2c[nH]c3ccccc23)C(=O)N[C@@H]([C@@H](C)O)C(=O)N[C@@H](Cc2c[nH]c3ccccc23)C(=O)N1C [Example 5008] ({CH2CO}-F[NMeA]NPHL[Sar]WTW[NMeNle][NMeNle]RCG-NH2; thioether N-14) | 18.1 | 22.7 |  |  | 
2 | CCCC[C@H]1C(=O)N(C)[C@@H](CCCC)C(=O)N[C@@H](C)C(=O)N[C@H](C(=O)NCC(N)=O)CSCC(=O)N[C@@H](Cc2ccc(O)cc2)C(=O)N(C)[C@@H](C)C(=O)N[C@@H](CC(N)=O)C(=O)N2CCC[C@H]2C(=O)N[C@@H](CN)C(=O)N[C@@H](CCC(=O)O)C(=O)N2C[C@H](O)C[C@H]2C(=O)N[C@@H](Cc2c[nH]c3ccccc23)C(=O)N[C@@H](CO)C(=O)N[C@@H](Cc2c[nH]c3ccccc23)C(=O)N1C [Example 1171] ({CH2CO}-Y[NMeA]NP[Dap]E[Hyp]WSW[NMeNle][NMeNle]ACG-NH2; thioether N-14) |  |  | 0.385 to 6.74 | 0.158 to 4.71 | 
3 | CCCC[C@H]1C(=O)N(C)[C@@H](CCCC)C(=O)N[C@@H](CCCNC(=N)N)C(=O)N[C@H](C(=O)NCC(N)=O)CSCC(=O)N[C@@H](Cc2ccc(OC)c(OC)c2)C(=O)N(C)[C@@H](C)C(=O)N[C@@H](CC(N)=O)C(=O)N2CCC[C@H]2C(=O)N[C@@H](Cc2cnc[nH]2)C(=O)N[C@@H](CC(C)C)C(=O)N(C)CC(=O)N[C@@H](Cc2c[nH]c3ccccc23)C(=O)N[C@@H](CO)C(=O)N[C@@H](Cc2c[nH]c3ccccc23)C(=O)N1C [Example 1105] ({CH2CO}-[Phe(3,4-(OMe)2)][NMeA]NPHL[Sar]WSW[NMeNle][NMeNle]RCG-NH2; thioether N-14) |  |  | 6.76 to 30.3 | 4.78 to 72.9 | 
4 | CCCC[C@H]1C(=O)N(C)[C@@H](CCCC)C(=O)NC(CCCNC(=N)N)C(=O)N[C@H](C(=O)NCC(N)=O)CSCC(=O)N[C@@H](Cc2ccc(O)cc2)C(=O)N(C)[C@@H](C)C(=O)N[C@@H](CC(N)=O)C(=O)N2CCC[C@H]2C(=O)N[C@@H](CN)C(=O)N[C@@H](CC(C)C)C(=O)N2C[C@H](O)C[C@H]2C(=O)N[C@@H](Cc2c[nH]c3ccccc23)C(=O)N[C@@H](CO)C(=O)N[C@@H](Cc2c(-c3ccc(F)cc3)[nH]c3ccccc23)C(=O)N1C (some centres unmarked) [Example 7002] ({CH2CO}-Y[NMeA]NP[Dap]L[Hyp]WS[X6][NMeNle][NMeNle][ξR]CG-NH2; thioether N-14) |  |  | 0.385 to 6.74 |  | 0.158 to 4.71

The next lines start with the values.

Row | IC50 (Human PD-L1/PD-1; value given instead of cluster, read-out: HTRF IC50 value) [nM] | IC50 ([1]; cell binding assay, cell line not given, value given instead of cluster, read-out: CBA IC50 value) [nM] | IC50 (Human PD-L1/PD-1; [2]) [nM] | IC50 [1, 3] [nM] | IC50 ([1]; cell binding assay, cell line not given, cluster symbol, read-out: CBA IC50 cluster) [nM] | Compound
5 |  |  | 6.76 to 30.3 | 0.158 to 4.71 |  | CCCC[C@H]1C(=O)N2CCC[C@@H]2C(=O)N[C@@H](CC(=O)O)C(=O)N[C@@H](C(C)C)C(=O)N(C)[C@@H](Cc2ccccc2)C(=O)N[C@@H](CCCCN)C(=O)N2CCC[C@@H]2C(=O)N[C@@H](Cc2c[nH]c3ccccc23)C(=O)N[C@@H](Cc2ccc(O)cc2)C(=O)N[C@@H](CC(C)C)C(=O)N[C@H](C(=O)NCC(N)=O)CSCC(=O)N[C@@H](Cc2ccccc2)C(=O)N(C)[C@@H](Cc2ccccc2)C(=O)N1C [Example 3187] (HELM PEPTIDE1{[O=C(C[*:3])[*:2]].F.[meF].[CCCC[C@@H](C(=O)[*:2])N(C)[*:1]].[dP].D.V.[meF].K.[dP].W.Y.L.C.G.[am]}$PEPTIDE1,PEPTIDE1,1:R3-14:R3$$$V2.0)
6 |  |  | 0.385 to 6.74 | 0.158 to 4.71 |  | CCCC[C@H]1C(=O)N(C)[C@@H](CCCC)C(=O)N[C@@H](CN)C(=O)N[C@H](C(=O)NCC(N)=O)CSCC(=O)N[C@@H](Cc2ccc(O)cc2)C(=O)N(C)[C@@H](C)C(=O)N[C@@H](CC(N)=O)C(=O)N2CCC[C@H]2C(=O)N[C@@H](CN)C(=O)N[C@@H](CC(C)C)C(=O)N2C[C@H](O)C[C@H]2C(=O)N[C@@H](Cc2c[nH]c3ccccc23)C(=O)N[C@@H](CO)C(=O)N[C@@H](Cc2csc3ccccc23)C(=O)N1C [Example 1161] ({CH2CO}-Y[NMeA]NP[Dap]L[Hyp]WS[Bta][NMeNle][NMeNle][Dap]CG-NH2; thioether N-14)
7 |  |  | 0.385 to 6.74 | 4.78 to 72.9 |  | CCCC[C@H]1C(=O)N(C)CC(=O)N[C@@H](CC(=O)O)C(=O)N[C@@H](C(C)C)C(=O)N(C)[C@@H](Cc2ccccc2)C(=O)N[C@@H](Cc2ccc(O)cc2)C(=O)N(C)CC(=O)N[C@@H](Cc2csc3ccccc23)C(=O)N[C@@H](Cc2ccc(O)cc2)C(=O)N[C@@H](CC(C)C)C(=O)N[C@H](C(=O)NCC(N)=O)CSCC(=O)N[C@@H](Cc2ccccc2)C(=O)N(C)[C@@H](Cc2ccccc2)C(=O)N1C [Example 3062] ({CH2CO}-F[NMeF][NMeNle][Sar]DV[NMeF]Y[Sar][Bta]YLCG-NH2; thioether N-13)
